Experimental findings from ChEMBL document CHEMBL4622996, “Discovery of Vixotrigine: A Novel Use-Dependent Sodium Channel Blocker for the Treatment of Trigeminal Neuralgia” (ACS Med Chem Lett, 2020) are described below.

In series [1] the target is Voltage-gated inwardly rectifying potassium channel KCNH2 (Homo sapiens, UniProt Q12809). Nature of the series: Inhibition of human ERG.
Series [2] deals with ATP-dependent translocase ABCB1 (Homo sapiens, UniProt P08183). Nature of the series: Inhibition of P-glycoprotein (unknown origin) upto 100 uM.
Series [3] can be described thus: Total blood clearance in rat blood at 0.5 mg/kg, iv. The format is ADME, organism-based.
Series [4] can be described thus: Volume of distribution in steady state in rat at 0.5 mg/kg, iv. Type of series: ADME, organism-based. To be noted: in vivo, read-out: Vdss.

Voltage-gated inwardly rectifying potassium channel KCNH2, sequence (Q12809 whole entry): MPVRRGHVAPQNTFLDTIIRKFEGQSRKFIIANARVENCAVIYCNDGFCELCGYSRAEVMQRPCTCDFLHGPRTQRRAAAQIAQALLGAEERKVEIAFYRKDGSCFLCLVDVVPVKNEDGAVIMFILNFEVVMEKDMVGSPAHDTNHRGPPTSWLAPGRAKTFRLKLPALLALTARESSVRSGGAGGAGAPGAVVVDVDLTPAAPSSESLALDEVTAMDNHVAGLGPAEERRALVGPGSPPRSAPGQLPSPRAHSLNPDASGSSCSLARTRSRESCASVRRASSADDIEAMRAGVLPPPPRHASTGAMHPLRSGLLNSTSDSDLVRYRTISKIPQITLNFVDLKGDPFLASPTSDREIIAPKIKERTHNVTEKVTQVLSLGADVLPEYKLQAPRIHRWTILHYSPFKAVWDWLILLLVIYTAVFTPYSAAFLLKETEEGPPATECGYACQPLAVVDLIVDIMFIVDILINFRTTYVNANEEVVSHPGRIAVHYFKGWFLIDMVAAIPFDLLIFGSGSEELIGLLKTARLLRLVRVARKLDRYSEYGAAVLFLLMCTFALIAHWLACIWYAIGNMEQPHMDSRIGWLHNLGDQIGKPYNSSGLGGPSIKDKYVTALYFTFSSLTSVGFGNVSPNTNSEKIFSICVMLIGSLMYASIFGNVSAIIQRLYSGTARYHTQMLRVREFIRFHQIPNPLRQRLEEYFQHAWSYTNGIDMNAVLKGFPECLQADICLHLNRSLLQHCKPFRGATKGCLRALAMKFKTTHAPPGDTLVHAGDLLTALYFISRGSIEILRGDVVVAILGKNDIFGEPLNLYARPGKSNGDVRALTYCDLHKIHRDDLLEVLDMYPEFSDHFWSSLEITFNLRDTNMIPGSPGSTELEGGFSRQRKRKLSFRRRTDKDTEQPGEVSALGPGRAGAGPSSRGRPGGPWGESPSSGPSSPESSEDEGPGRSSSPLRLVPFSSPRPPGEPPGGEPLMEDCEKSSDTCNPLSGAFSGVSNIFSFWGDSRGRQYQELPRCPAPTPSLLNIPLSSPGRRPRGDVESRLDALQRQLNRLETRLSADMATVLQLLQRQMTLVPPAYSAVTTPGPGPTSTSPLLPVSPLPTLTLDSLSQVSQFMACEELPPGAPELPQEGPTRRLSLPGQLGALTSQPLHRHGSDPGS
ATP-dependent translocase ABCB1, sequence (P08183 whole entry): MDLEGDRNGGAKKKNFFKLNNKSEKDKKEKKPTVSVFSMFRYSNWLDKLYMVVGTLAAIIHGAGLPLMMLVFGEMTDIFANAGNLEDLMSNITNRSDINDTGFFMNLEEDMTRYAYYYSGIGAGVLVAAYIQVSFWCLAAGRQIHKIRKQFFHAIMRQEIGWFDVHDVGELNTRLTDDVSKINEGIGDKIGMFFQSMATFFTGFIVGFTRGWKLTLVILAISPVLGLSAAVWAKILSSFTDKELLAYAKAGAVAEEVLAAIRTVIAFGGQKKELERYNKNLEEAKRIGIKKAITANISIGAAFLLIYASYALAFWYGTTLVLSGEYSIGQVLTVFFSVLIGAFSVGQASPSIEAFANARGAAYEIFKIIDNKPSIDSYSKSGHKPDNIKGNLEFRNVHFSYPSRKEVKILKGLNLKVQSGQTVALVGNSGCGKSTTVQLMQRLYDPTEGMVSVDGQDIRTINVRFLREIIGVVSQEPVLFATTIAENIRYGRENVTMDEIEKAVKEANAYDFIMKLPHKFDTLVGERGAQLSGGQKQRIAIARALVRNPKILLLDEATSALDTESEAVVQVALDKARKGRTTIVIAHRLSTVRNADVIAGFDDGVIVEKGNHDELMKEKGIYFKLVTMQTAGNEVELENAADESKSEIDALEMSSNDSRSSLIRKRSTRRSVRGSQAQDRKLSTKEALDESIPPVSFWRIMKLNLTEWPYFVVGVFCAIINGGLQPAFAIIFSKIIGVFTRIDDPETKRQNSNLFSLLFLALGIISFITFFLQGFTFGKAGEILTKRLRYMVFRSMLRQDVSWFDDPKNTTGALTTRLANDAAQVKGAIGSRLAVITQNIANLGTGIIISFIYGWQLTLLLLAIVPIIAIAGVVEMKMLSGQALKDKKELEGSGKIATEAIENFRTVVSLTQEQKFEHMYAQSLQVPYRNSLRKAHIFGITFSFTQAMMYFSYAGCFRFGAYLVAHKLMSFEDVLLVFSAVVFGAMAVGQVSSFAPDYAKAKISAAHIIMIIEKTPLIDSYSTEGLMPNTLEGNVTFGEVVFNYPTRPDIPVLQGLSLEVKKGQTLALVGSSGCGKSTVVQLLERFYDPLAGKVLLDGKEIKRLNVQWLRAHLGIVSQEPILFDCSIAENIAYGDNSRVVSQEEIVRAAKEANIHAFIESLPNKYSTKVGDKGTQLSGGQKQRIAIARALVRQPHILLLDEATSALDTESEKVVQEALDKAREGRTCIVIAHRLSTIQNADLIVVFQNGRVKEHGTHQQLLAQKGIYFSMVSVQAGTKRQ

One may read the IC50 as the concentration at which inhibition is half-maximal. A lower IC50 goes with inhibition by little substance. One may read the clearance as a measure of how efficiently the substance is removed, as volume per time. Read a low clearance as inefficient removal. In turn, `Cl.NC(=O)[C@@H]1CC[C@H](c2ccc(OCc3ccccc3F)cc2)N1` [RAXATRIGINE HYDROCHLORIDE] showed an IC50 in series [1] of 12.6 µM. The “inhibition (INH)” value in series [2] is listed as “Not Active”. In series [3], this compound showed a clearance of 39 mL/min/kg. Besides, the Vd in series [4] worked out at 2 L/kg.
